{
  "source": "patent US20260200943A1",
  "about": "“COMPOUNDS FOR TREATING CANCER” (Genesis Therapeutics, Inc., priority 2022, published 2026)",
  "assay_type_in_all_cases": "biochemical",
  "key": {"CDK1/CyclinB1 [1]": {"biological_target": "T1, CDK1/CyclinB1 (Homo sapiens, UniProt P06493)", "T1 construct": "Wild-type, full length CDK1 in complex with wildtype, full length CyclinB1: Carna Cat #04-102; purchased Carna 04-102", "T1 sequence (P06493 whole entry)": "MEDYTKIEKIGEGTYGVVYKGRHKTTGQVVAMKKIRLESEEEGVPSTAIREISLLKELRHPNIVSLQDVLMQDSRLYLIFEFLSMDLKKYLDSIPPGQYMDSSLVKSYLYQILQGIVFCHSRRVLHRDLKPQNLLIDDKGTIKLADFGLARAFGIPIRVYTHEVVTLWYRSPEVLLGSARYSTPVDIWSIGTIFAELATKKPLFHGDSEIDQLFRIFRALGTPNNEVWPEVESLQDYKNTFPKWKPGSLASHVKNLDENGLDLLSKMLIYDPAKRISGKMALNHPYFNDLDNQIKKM", "T1 sequence (P14635 whole entry partner)": "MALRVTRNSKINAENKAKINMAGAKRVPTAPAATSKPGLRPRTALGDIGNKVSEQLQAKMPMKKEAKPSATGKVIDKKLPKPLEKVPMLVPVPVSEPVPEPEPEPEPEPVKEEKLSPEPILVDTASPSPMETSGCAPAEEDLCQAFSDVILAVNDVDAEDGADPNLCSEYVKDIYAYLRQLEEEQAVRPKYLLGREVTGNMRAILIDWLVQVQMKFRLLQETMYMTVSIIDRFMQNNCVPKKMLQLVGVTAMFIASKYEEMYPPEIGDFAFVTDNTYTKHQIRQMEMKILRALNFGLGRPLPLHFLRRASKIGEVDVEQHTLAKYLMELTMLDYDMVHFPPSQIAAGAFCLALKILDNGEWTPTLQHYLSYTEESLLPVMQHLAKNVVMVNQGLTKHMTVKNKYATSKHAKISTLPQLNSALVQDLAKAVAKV", "test": "CDK1/CyclinB1 ChEF Assay (Table A);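 note: Ki reported in nM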", "conditions": "read-out: CDK1/CCNB1 ChEF Ki: Average Ki", "protocol": "500 nL of 50× compound in 100% DMSO is added to a 384-well low volume, white assay plate. 19.5 μL of 1.3×CDK1/CyclinB1 (Wild-type, full length CDK1 in complex with wildtype, full length CyclinB1: Carna Cat #04-102) diluted in assay buffer (50 mM Hepes, 0.01% Brij-35, 10 mM MgCl2, 0.5 mM EGTA, 1% Glycerol, and 1.2 mM DTT) is added to the plates on top of the compound and pre-incubated for 30 minutes at room temperature. Following the incubation, 5 μL of 5×Sox-chromophore (CSox) labeled peptide substrate (AQT0297, AssayQuant) & ATP diluted in assay buffer is added to the plate to initiate the reaction. The assay is incubated at room temperature for 30 min after initiation. The CSox peptide substrate is phosphorylated by CDK1/B1 upon ATP hydrolysis.\n(§1) The fluorescent intensity measurement of the assay plate for all assays described above is read on a microplate reader once the assay is initiated and again at the completion of the assay. Phosphorylation of the CSox-based peptide substrate sensor results in an immediate increase in fluorescence. These raw fluorescence intensity values are normalized to calculate percent inhibition, which are fit to a four-parameter logistic curve and IC50 values are calculated. IC50 values are converted to Ki using substrate, KM^app values, and the Cheng-Prusoff equation."}, "CDK2/CyclinA2": {"biological_target": "T2, CDK2/CyclinA2 (Homo sapiens, UniProt P24941)", "T2 construct": "Wild-type, full length CDK2 in complex with wildtype, full length CyclinA2: Carna Cat #04-103; purchased Carna 04-103", "test": "CDK2/Cyclin A2 Mobility Shift Assay (Caliper, Table B)", "conditions": "for pKi: Caliper mobility shift, 10xKm, read-out: CDK2/CCNA2 Caliper 10xKm Ki: Average Ki", "protocol": "10 nL of 2000× compound in 100% DMSO is added to a 384-well polypropylene assay plate. 15 μL of 1.3×CDK2/A2 and 1.3× fluorescent substrate (Wild-type, full length CDK2 in complex with wildtype, full length CyclinA2: Carna Cat #04-103 and FL-Peptide 18: PerkinElmer Cat #760362) diluted in kinase buffer (50 mM Hepes, 0.01% Brij-35, 10 mM MgCl2, 1 mM EGTA, 0.05% BSA, and 2 mM DTT) is added to the plates on top of the compound, mixed, and pre-incubated for 30 minutes at room temperature. The fluorescently labeled peptide substrate is phosphorylated by CDK2/A2 upon ATP hydrolysis. Following the incubation, 5 μL of 4×ATP diluted in kinase buffer is added to the plate to initiate the reaction. Following the 30-minute incubation, the reaction is stopped by adding 75 μL of stopping buffer containing 0.5 M EDTA.\n(§2) The assay plate is then read on a Lab Chip EZ Reader which separates the fluorescently labeled substrate and product peptides through a mobility difference. The phosphorylation of the substrate imparts a negative charge, which allows differences in separation as both are pulled through the microfluidic chip. The ratio of substrate and product values are used to generate percent conversion. These raw percent conversion values are normalized to calculate percent inhibition, which are fit to a four-parameter logistic curve and IC50 values are calculated. IC50 values are converted to Ki through using substrate and Km^app values, and the Cheng-Prusoff equation."}, "CDK6/CyclinD3": {"biological_target": "T3, CDK6/CyclinD3 (Homo sapiens, UniProt Q00534)", "T3 construct": "Wild-type, full length CDK6 in complex with wildtype, full length CyclinD3: Carna Cat #04-107; purchased Carna 04-107", "T3 sequence (Q00534 whole entry)": "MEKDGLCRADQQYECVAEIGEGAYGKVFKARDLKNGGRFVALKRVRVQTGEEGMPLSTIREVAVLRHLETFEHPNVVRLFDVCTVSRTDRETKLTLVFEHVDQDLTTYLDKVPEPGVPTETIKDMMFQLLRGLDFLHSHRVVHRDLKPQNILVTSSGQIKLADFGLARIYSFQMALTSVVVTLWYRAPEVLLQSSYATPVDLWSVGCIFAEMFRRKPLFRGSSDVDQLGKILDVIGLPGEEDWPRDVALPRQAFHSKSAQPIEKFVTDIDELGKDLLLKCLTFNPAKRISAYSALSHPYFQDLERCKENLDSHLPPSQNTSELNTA", "T3 sequence (P30281 whole entry partner)": "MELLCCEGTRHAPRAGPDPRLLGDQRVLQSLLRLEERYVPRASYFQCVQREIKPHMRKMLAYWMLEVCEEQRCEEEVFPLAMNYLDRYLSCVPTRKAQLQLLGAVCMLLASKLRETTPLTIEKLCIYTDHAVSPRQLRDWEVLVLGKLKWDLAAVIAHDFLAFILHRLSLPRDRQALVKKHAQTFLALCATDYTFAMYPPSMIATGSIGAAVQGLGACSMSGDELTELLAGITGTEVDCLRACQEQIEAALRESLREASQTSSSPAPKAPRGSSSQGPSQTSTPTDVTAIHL", "test": "CDK6/Cyclin D3 Mobility Shift Assay (Caliper, Table B)", "conditions": "read-out: CDK6/CCND3 Caliper Ki: Average Ki", "protocol": "10 nL of 2000× compound in 100% DMSO is added to a 384-well polypropylene assay plate. 15 μL of 1.3×CDK6/D3 and 1.3× fluorescent substrate (Wild-type, full length CDK6 in complex with wildtype, full length CyclinD3: Carna Cat #04-107 and FL-Peptide 34: PerkinElmer Cat #760643) diluted in kinase buffer (50 mM Hepes, 0.01% Brij-35, 10 mM MgCl2, 1 mM EGTA, 0.05% BSA, and 2 mM DTT) is added to the plates on top of the compound, mixed, and pre-incubated for 30 minutes at room temperature. The fluorescently labeled peptide substrate is phosphorylated by CDK6/D3 upon ATP hydrolysis. Following the incubation, 5 μL of 4×ATP diluted in kinase buffer is added to the plate to initiate the reaction. Following the 30-minute incubation, the reaction is stopped by adding 75 μL of stopping buffer containing 0.5 M EDTA.\nas §2"}, "CDK1/CyclinB1 [2]": {"biological_target": "T1, CDK1/CyclinB1", "test": "CDK1/CyclinB1 ChEF Assay (AQT, Table C)", "conditions": "10xKm, read-out: CDK1/CCNB1 AQT AQT10xKm Ki: Average Ki", "protocol": "16 nL of 1000× compound in 100% DMSO is added to a 384-well low volume, black assay plate. 12 μL of 1.3×CDK1/CyclinB1 (Wild-type, full length CDK1 in complex with wildtype, full length CyclinB1: Carna Cat #04-102) diluted in assay buffer (54 mM Hepes, 0.012% Brij-35, 10 mM MgCl2, 0.55 mM EGTA, 1% Glycerol, 0.02% BSA, and 1.2 mM DTT) is added to the plates on top of the compound and pre-incubated for 30 minutes at room temperature. Following the incubation, 4 uL of 4×Sox-chromophore (CSox) labeled peptide substrate (AQT0297, AssayQuant) & ATP diluted in assay buffer is added to the plate to initiate the reaction. The assay is incubated at room temperature for 120 min after initiation. The CSox peptide substrate is phosphorylated by CDK1/B1 upon ATP hydrolysis.\nas §1, with “plate” for “plate for all assays described above”"}},
  "note": "pKi: −log10 of the molar value.",
  "data": [
    {"smiles": "O=C1NCCCCCCNS(=O)(=O)c2ccc(c(F)c2)Nc2cc([nH]n2)[C@H]2CC[C@H](C2)O1", "note": "[Compound 91, (1^1S,1^3R,Z)-4^2-fluoro-2^1H-15-oxa-5-thia-3,6,13-triaza-2(5,3)-pyrazola-4(1,4)-benzena-1(1,3)-cyclopentanacyclopentadecaphan-14-one 5,5-dioxide]", "values": [
      {"measurement": "pKi", "setting": "CDK1/CyclinB1 [1]", "result": "7.60 to 9.00"},
      {"measurement": "pKi", "setting": "CDK2/CyclinA2", "result": "> 9.00"},
      {"measurement": "CDK2/CCNA2 Caliper 10xKm Ki: CDK2/A2 Selectivity over CDK1/B1", "setting": "CDK2/CyclinA2", "result": "A (A>10)"},
      {"measurement": "CDK2/CCNA2 Caliper 10xKm Ki: CDK2/A2 Selectivity over CDK6/D3", "setting": "CDK2/CyclinA2", "result": "A (A>10)"},
      {"measurement": "CDK2/CCNA2 Caliper 10xKm Ki: CDK2/A2 Selectivity over CDK9", "setting": "CDK2/CyclinA2", "result": "A (A>10)"},
      {"measurement": "pKi", "setting": "CDK6/CyclinD3", "result": "≤ 7.00"},
      {"measurement": "pKi", "setting": "CDK1/CyclinB1 [2]", "result": "7.60 to 9.00"}
    ]},
    {"smiles": "O=C1NCC=CCNS(=O)(=O)c2ccc(c(F)c2)Nc2cc([nH]n2)[C@H]2CC[C@H](C2)O1", "note": "[Compound 102, (1^1S,1^3R,2^4Z)-4^2-fluoro-2^1H-13-oxa-5-thia-3,6,11-triaza-2(5,3)-pyrazola-4(1,4)-benzena-1(1,3)-cyclopentanacyclotridecaphan-8-en-12-one 5,5-dioxide]", "values": [
      {"measurement": "pKi", "setting": "CDK1/CyclinB1 [1]", "result": "7.60 to 9.00"},
      {"measurement": "pKi", "setting": "CDK2/CyclinA2", "result": "> 9.00"},
      {"measurement": "CDK2/CCNA2 Caliper 10xKm Ki: CDK2/A2 Selectivity over CDK1/B1", "setting": "CDK2/CyclinA2", "result": "A (A>10)"},
      {"measurement": "CDK2/CCNA2 Caliper 10xKm Ki: CDK2/A2 Selectivity over CDK6/D3", "setting": "CDK2/CyclinA2", "result": "A (A>10)"},
      {"measurement": "CDK2/CCNA2 Caliper 10xKm Ki: CDK2/A2 Selectivity over CDK9", "setting": "CDK2/CyclinA2", "result": "A (A>10)"},
      {"measurement": "pKi", "setting": "CDK6/CyclinD3", "result": "≤ 7.00"}
    ]}
  ]
}
